Experiments:
[1] = molar heat capacity at constant pressure; conditions: 101.33 kPa, Liquid, Small sample (50 mg) DSC
[2] = 101 kPa, Liquid; for mass density: Pycnometric method; for speed of sound: Pulse-echo method
[3] = refractive index (Na D-line) (dimensionless); conditions: 298.15 K; 101.33 kPa; Liquid; Standard Abbe refractometry
[4] = xn = mol fraction of the nth substance listed; conditions: 101 kPa, Liquid; for mass density: Pycnometric method; for speed of sound: Pulse-echo method

CCC(O)CO (stereo not drawn) [1,2-butanediol]
Conditions	mass density, [2] [kg/m3]	molar heat capacity at constant pressure, [1] [J/K/mol]	speed of sound, [2] [m/s]
283.15 K	–	222.86	–
288.15 K	–	225.62	–
293.15 K	1002.32	228.35	–
298.15 K	998.59	231.06	1449.9
303.15 K	994.78	233.74	–
308.15 K	990.97	236.4	–
313.15 K	–	239.05	–
318.15 K	–	241.66	–

Conditions	refractive index
[3]	1.4364

CCC(O)CO (stereo not drawn) [1,2-butanediol] + CCCCO
[4]
Conditions	mass density, 293.15 K [kg/m3]	mass density, 298.15 K [kg/m3]	mass density, 303.15 K [kg/m3]	mass density, 308.15 K [kg/m3]	speed of sound, 298.15 K [m/s]
x1 = 0.05027	819.25	815.37	811.5	807.63	1248.1
x1 = 0.1001	828.73	824.84	820.98	817.06	1256.3
x1 = 0.1501	838.28	834.4	830.49	826.61	1264.1
x1 = 0.3	867.03	863.1	859.21	855.24	1289.6
x1 = 0.4004	886.32	882.4	878.47	874.54	1307.8
x1 = 0.4994	905.4	901.47	897.58	893.65	1327.2
x1 = 0.6002	924.85	920.95	917.07	913.17	1348.3
x1 = 0.7001	944.16	940.28	936.42	932.51	1371.1
x1 = 0.85	973.21	969.42	965.57	961.69	1408.2
x1 = 0.8998	982.93	979.12	975.25	971.41	1421.8
x1 = 0.9498	992.62	988.87	985.02	981.19	1435.5
x1 = 1	1002.32	998.59	994.78	990.97	1449.9

CCCCO [butan-1-ol]
Conditions	mass density, [2] [kg/m3]	molar heat capacity at constant pressure, [1] [J/K/mol]	speed of sound, [2] [m/s]
283.15 K	–	167.32	–
288.15 K	–	170.35	–
293.15 K	809.65	173.54	–
298.15 K	805.81	176.9	1240.2
303.15 K	801.98	180.41	–
308.15 K	798.13	184.09	–
313.15 K	–	187.93	–
318.15 K	–	191.93	–

Conditions	refractive index
[3]	1.3972

CCCCO [butan-1-ol] + CCC(O)CO
[4], x2 = 0
Conditions	mass density [kg/m3]	speed of sound [m/s]
293.15 K	809.65	–
298.15 K	805.81	1240.2
303.15 K	801.98	–
308.15 K	798.13	–
